Assay: gradient 5% acetonitrile 3 min, to 50% in 2 min, to 85% in 15 min, held 3 min, 100 µL/min
Conditions: column: Zorbax Extend-C18 2.1 x 50 mm; eluents: water / acetonitrile, 0.1% formic acid
Summary of the method: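 Mixtures of ~100 pure standards were chromatographed on a Zorbax Extend-C18 column (2.1 × 50 mm, 1.8 μm) at 100 μL/min using water and acetonitrile, each with 0.1% formic acid. Detection used a quadrupole time-of-flight mass spectrometer in positive and negative ionization mode, and data collection spanned 3 months. Retention time was obtained from adduct peaks picked computationally and each checked manually.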

Structure (SMILES)	RP-LC retention time [s]
Cc1ccc2c(C(=O)NCCN3CCCCC3)cc(NC(=O)C3CCC3)cc2n1	562
CCCn1c(=O)c(C)nc2cc(-c3noc(-c4ccsc4)n3)ccc21	1080
CC(=O)c1cccc(NS(=O)(=O)c2ccc(-c3c(C)noc3C)cc2)c1	805
COc1ccc(CNC(=O)NCc2cccnc2OC)cc1	691
CN(C)C(CNC(=O)C(=O)NCCC1=CCCCC1)c1ccsc1 (stereo not drawn)	590
O=C(Nc1cccc(OC(F)(F)F)c1)C1(CCO)CCN(c2ncccn2)C1 (stereo not drawn)	661
O=C(CSCCSCC(=O)Nc1ccccc1)Nc1ccccc1	775
O=C(Nc1ccccc1Cl)c1cnc(-c2ccc(F)cc2)nc1-c1ccncc1	1000
O=c1ccc(-c2nc(-c3ccncc3)no2)cn1Cc1noc(C2CCCC2)n1	719
Cc1cc2nn(CC(=O)Nc3ccc(C)c(F)c3)c(=O)n2c(N2CCCC2)n1	805
CN(C)c1ccc(-c2nc3cnc(Br)cn3c2Nc2ccc3c(c2)OCO3)cc1	894
CCN(CC)S(=O)(=O)c1ccc(C)c(NC(=O)c2ccccc2C(=O)O)c1	575
O=C(NC1CCN(Cc2ccccc2)CC1)c1ccc2nc3ccc(Cl)cc3c(=O)n2c1	665
COC(=O)c1ccccc1NC(=O)CSc1ccc(N2CCCC(C(=O)NC3CC3)C2)nn1 (stereo not drawn)	683
N#Cc1ccc(CN2CCCC2=O)cc1	658
Cc1cc(OCC(=O)NCc2ccco2)nc(-c2ccc(Cl)cc2)n1	1000
Cc1nc(-c2noc(-c3ccncc3)n2)cn1CC(=O)NCc1cccc(Cl)c1	693
CC1(C(=O)NCc2ccc(F)cc2)CCN(S(=O)(=O)c2ccc(Br)cc2)CC1	1000
Cc1cccc(NC(=O)N2CCC(N3CCN(Cc4ccccc4)C3=O)CC2)c1	853
CCN(CC)S(=O)(=O)c1ccc2c(c1)cc(C(=O)NCCc1c[nH]c3ccc(OC)cc13)n2C	964
COc1cc(CNC(=O)C2CCCN(c3nccc(C)n3)C2)cc(OC)c1OC (stereo not drawn)	655
Cc1ccc(-c2nc(-c3ccc4nnn(C)c4c3)no2)cc1	968

Structure (SMILES)	RP-LC retention time [s]
Cc1ccc(Cn2c(N3CCC(C(=O)NCC4CC4)CC3)nc3ccsc3c2=O)cc1	879
Cc1ccc(S(=O)(=O)N2CC(Cc3nncn3C3CCCC3)C2)cc1Cl	795
Cc1ccc2c(Nc3ccc(S(N)(=O)=O)cc3)c(C(=O)N3CCC(C)CC3)cnc2n1	582
c1cncc(-c2nc(-c3ccc(OC4CN(Cc5ccsc5)C4)cc3)no2)c1	693
Cc1ccc(NC(=O)CSc2cc(N3CCC(C)CC3)ncn2)c(C)c1	1100
CNC(=O)c1nc(C(C)(C)NC(=O)c2cnccn2)nc2c1OCO2	631
O=C1C2N=NN(Cc3nc(-c4cccc(Br)c4)no3)C2C(=O)N1c1ccc2c(c1)CCC2 (stereo not drawn)	1130
CSc1ccc(-c2nc3cc(C)ccn3c2Nc2ccc(C)cc2)cc1	808
COC(=O)c1cc(S(=O)(=O)N2CCCC2C(=O)Nc2ccc(F)c(Cl)c2)cn1C (stereo not drawn)	978
Cc1ccc(C(=O)Nc2nc(-c3ccc4c(c3)NC(=O)CO4)c(C)s2)cc1	931
CC(NC(=O)c1cn(C)c2ncccc12)c1cccnc1 (stereo not drawn)	555
COC(=O)Nc1nc2ccc(Br)cc2[nH]1	642
Cc1ccc(-c2ccc3nnc(CCC(=O)NC4CCC(C)CC4)n3n2)cc1C (stereo not drawn)	854
COc1ccc(OC)c(NC(=O)N2C[C@@H](F)C[C@H]2C(=O)N2CCc3ccccc3C2)c1	826
CCCC(=O)N1CCN(c2ccc(=O)n(-c3ccc(C(C)C)cc3)n2)CC1	851
CC(CCc1ccccc1)NC(=O)C1CCN(S(=O)(=O)c2ccc3c(ccn3C)c2)CC1 (stereo not drawn)	882
CCc1ccc(-c2nc(-c3ccc4c(c3)N(CC)C(=O)CO4)no2)cc1	1320
O=C(Nc1ccccc1Br)N1CCc2nc(-c3ccccc3)ncc2C1	964
COC(=O)c1ccc(NC(=O)N(C)CCc2noc(C3CCCCC3)n2)cc1	906
COc1ccc(C2=C(C)C(N3CCC(C(=O)NC4CCCC4)CC3)=NS2(=O)=O)cc1	780
CCn1c(CNC(=O)C2CCC2)nc2c1CN(S(=O)(=O)c1ccc(C)cc1)CC2	649
CCOC1CCN(C(=O)c2ccc(F)cc2)CC1	760

Structure (SMILES)	RP-LC retention time [s]
COc1cc(NC(=O)C2CCCN(c3cnc4nccnc4c3)C2)cc(OC)c1 (stereo not drawn)	712
CCOc1ccccc1OCc1nn2c(-c3ccccn3)nnc2s1	800
Cc1sc2c(c1C)C(c1ccc(Cl)cc1)=N[C@@H](CC(=O)Nc1ccc(O)cc1)c1nnc(C)n1-2	922
O=C(Nc1nnc(C2CC(=O)N(c3ccc(Cl)cc3)C2)o1)c1ccccc1F (stereo not drawn)	748
COc1cccc(S(=O)(=O)N2CCN(C3=CC4=NC(C)CN4C=N3)CC2)c1 (stereo not drawn)	648
COCCCn1c(=O)c2ccccc2n(Cc2nc(-c3cccc(Cl)c3)no2)c1=O	1100
N#Cc1cccc(N2C=C(C(=O)N3CCCCC3)S(=O)(=O)c3ccc(F)cc32)c1	827
COc1ccc(OC)c(NC(=O)C2CCN(c3cc(N4CCCCC4)ncn3)CC2)c1	709
O=c1c2cc3c(cc2nc(SCc2nc(-c4cccc(F)c4)no2)n1Cc1ccncc1)OCO3	795
CCc1nncn1C1CCN(S(=O)(=O)c2ccc(C)c(C)c2)CC1	731
Cc1cccc(S(=O)(=O)N2CCC(c3nc(C(=O)N4CCOCC4)c(C)o3)CC2)c1	819
CCOc1ccc(CNC(=O)C2CCCN(c3nn4c(=O)c5c(nc4s3)CCCC5)C2)cc1 (stereo not drawn)	784
COc1ccc(CNC(=O)CCc2nnc3c4cc(-c5ccccc5)nn4ccn23)cc1	728
CCc1nncn1C1CCN(S(=O)(=O)c2cc(C)ccc2C)CC1	752
O=C(C1CC1)N1CCC(c2noc(-c3cccnc3)n2)C1 (stereo not drawn)	631
Cc1ccc(OCC(=O)Nc2nnc(SCc3nnc(-c4ccccc4)o3)s2)c(C)c1	998
CC(C)NC(=O)c1ccc(OCC2CCCN(C(=O)Cc3ccccc3Cl)C2)cc1 (stereo not drawn)	899
COc1cccc(-n2c(=O)c(C(=O)Nc3ccccc3F)c(O)c3cccnc32)c1	1200
Cc1nn(CC(=O)O)c(=O)c2nc(-c3ccccc3)sc12	701
O=C(Cc1nnc(-c2cccc(F)c2)o1)N1CCCCC1	630
O=C(Nc1cccnc1)c1ccccc1OCc1ccc(S(=O)(=O)N2CCOCC2)o1	594
COc1ccc(S(=O)(=O)N2CC3CN(C(=O)c4ccncc4)CC(C2)O3)cc1	621

Structure (SMILES)	RP-LC retention time [s]
CC(C)CC(=O)N1CCC(c2noc(-c3ccncc3)n2)C1 (stereo not drawn)	719
Cn1nc(-c2nc(Cc3ccccc3)no2)c2c1CCN(C(=O)NC1CCCC1)C2	867
CCC(=O)Nc1ccc2c(c1)CN(C(=O)c1ccc(Cl)cc1)C(C(=O)N1CCCC1)C2 (stereo not drawn)	738
Cc1cc(-c2nnc(C3CC3)o2)c(C)n1CC(=O)NCc1ccc(F)c(Cl)c1	848
Cc1cc(N2CCCCC2)nc(NCCNS(=O)(=O)N(C)C)n1	570
O=C(Cn1c(=O)n(Cc2ccc3c(c2)OCO3)c(=O)c2ncccc21)N1CCCc2ccccc21	826
COC(=O)c1ccc(C(=O)OC)c(NS(=O)(=O)CCOc2ccccc2)c1	968
CCC(=O)Nc1ccc(SCc2nnc(-c3ccccc3)o2)cc1	811
COc1ccc(-c2csc(NC(=O)C3(c4ccccc4)CCCC3)n2)cc1OC	1170
Cc1cc(-c2nnc(-c3ccc(F)cc3)o2)c(C)n1CC(=O)NCc1cc(F)cc(F)c1	992
O[C@@H]1C[C@@H](c2nnc3n2CCN(Cc2ccccn2)C3)N(Cc2ccccc2)C1	537
COc1ccc(N2CCN(C(=O)C34CCC(C)(C(=O)C3)C4(C)C)CC2)cc1 (stereo not drawn)	784
COc1cccc(CSc2ccc(-n3nc4c(c3C)CCC4)nn2)c1	1240
COc1ccc2c(c1)C=C(C(=O)Nc1ccccc1F)C=CO2	1020
O=C(NCc1ccc(Cl)cc1)NCC1(CO)CC1	654
COCCOC1CN(C2CCN(Cc3ccccc3C#N)CC2)C12CCCCC2 (stereo not drawn)	572
Cc1cc(=O)oc2c3c(cc(OCC(=O)N[C@H](CC(C)C)C(=O)O)c12)OC(C)(C)CC3	892
COc1ccc(C2(C(=O)N3CCCC(CN4CCOCC4)CC3)CC2)cc1 (stereo not drawn)	596
CCN1CCN(c2ccc(-c3nc(-c4ccc(OC)cc4)no3)cn2)CC1	696
CCOc1ccccc1NC(=O)N1C[C@@H](F)C[C@H]1C(=O)N1CCc2ccccc2C1	819
COC(=O)CNC(=O)Cc1c(C)nn(-c2nc(-c3ccc(C)cc3)cs2)c1C	963
CC(C)CC(=O)N1CCN(c2ccc(=O)n(-c3ccc(C(C)C)cc3)n2)CC1	902

From the METLIN SMRT retention time set (Domingo-Almenara et al. 2019)
